Tests used:
Type in all cases: in vivo, mouse
[1] = tested on: male C57BL/6 mice; assay: Mating assay, fertility of male mice; settings: 250 mg/kg/day
Description: Treatment of mice—Male C57BL/6 mice were housed under standard non-sterile conditions. The mice were provided with water ad lib. and prior to drug administration were fed a diet of pelleted mouse chow (expanded Rat and Mouse Chow 3, SDS Ltd.) To administer the compounds of the present invention, the mice were fed a diet of powdered mouse chow (expanded Rat and Mouse Chow 1, ground, SDS Ltd.) containing either NB-DNJ, NB-DGJ, NN-6-MeDGJ, or DNJ. The diet and compound (both as dry solids) were mixed thoroughly, stored at room temperature, and used within 7 days of mixing.
Mating assays—To assess the fertility of male mice that were fed on a diet containing an iminosugar, a mating assay was used: typically six week old male C57BL/6 mice in groups of three were administered diet containing compound for five weeks (unless otherwise specified), after which each of them was caged with four untreated female C57BL/6 mice, and provided with standard pelleted chow. Females were at least 11 weeks old, and age-matched in each experiment. The male was removed from the females after 7 or 9 days, depending on the experiment; the females were monitored for vaginal mucous plugs, pregnancies, and, if any, litter sizes. To study any effect on female fertility six-week-old female C57BL/6 mice were treated with NB-DNJ for five weeks, after which each of them was caged with a non-treated age-matched male for four days.

[2] = Body, gonad and organ weights of treated mice
[3] = tested on: liver glycogen; assay: Liver glycogen levels in fed or starved mice; settings: 250 mg/kg/day
Experimental: Liver glycogen levels were measured in untreated and NN-DGJ-treated mice (FIG. 6B), who were either provided food or starved.

Q: What does the source list for `CCCCCCCCCN1C[C@H](O)[C@@H](O)[C@@H](O)[C@H]1CO` [NN-DGJ]?
A: fertility of male mice ([1]; after five weeks of treatment, four treated mice): completely suppressed; litter size compared with untreated males ([1]; six weeks after withdrawal): almost the same; fertility of male mice after withdrawal ([1]; six weeks following withdrawal): fully regained fertility; thymus and spleen weights ([2]; 250 mg/kg/day): did not affect; body weight relative to untreated mice ([2]; 250 mg/kg/day over a 40 day period, n=8): did not affect; breakdown of liver glycogen during starvation [3]: did not inhibit

From patent publication US20040019082A1, “Reversible infertility in male mice following oral administration of alkylated imino sugars: a non-hormonal approach to male contraception” (United Therapeutics Corporation, priority 2002, published 2004)
